The values below come from paper PMC6888270 (International Journal of Molecular Sciences, 2019).

Each structure is given as a SMILES string. Where two headings read alike, the source gives them in different places. Square brackets hold non-standard residues; d marks the D form. Peptide text beside a SMILES is read from it. d(hArg(Et2)) = CCN=C(NCC)NCCCC[C@@H](N)C(=O)O; hArg(Et2) = CCN=C(NCC)NCCCC[C@H](N)C(=O)O; dPhe(4-Cl) = N[C@H](Cc1ccc(Cl)cc1)C(=O)O; d2Nal = N[C@H](Cc1ccc2ccccc2c1)C(=O)O; dCit = NC(=O)NCCC[C@@H](N)C(=O)O; d3Pal = N[C@H](Cc1cccnc1)C(=O)O

As usually defined, the IC50 is the concentration at which inhibition is half-maximal.

The target of assay [1] is T1, GnRH receptor (GnRHR) (Homo sapiens, UniProt P30968).
T1 sequence (P30968 1-328): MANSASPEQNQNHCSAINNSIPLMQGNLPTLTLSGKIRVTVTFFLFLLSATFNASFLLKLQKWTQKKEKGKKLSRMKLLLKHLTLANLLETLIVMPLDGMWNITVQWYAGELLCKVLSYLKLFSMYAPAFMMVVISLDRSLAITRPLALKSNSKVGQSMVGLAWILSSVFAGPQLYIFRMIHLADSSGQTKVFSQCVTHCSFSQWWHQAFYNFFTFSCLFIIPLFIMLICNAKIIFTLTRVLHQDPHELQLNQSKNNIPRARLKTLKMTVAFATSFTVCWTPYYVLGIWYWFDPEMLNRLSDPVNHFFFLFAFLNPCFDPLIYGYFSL
As to the kind of experiment: BRET (CAMYEL) measurement of cAMP accumulation in HEK293/GnRHR cells. The format is cell-based. Details: HA (hemagglutinin); expressed in transfected cells; host or cells: HEK293 (transient co-transfection with BRET biosensor). How it is done:
Different transfection protocols were followed, depending on the endpoint to be measured. For BRET experiments, 3 × 10^4 cells were transiently transfected using vectors expressing the cAMP-CAMYEL or the aequorin-Ca^2+ BRET biosensor-encoding cDNA [59], as appropriate, together with the GnRHR-HA-encoding vector. Transfections were performed in a 96-well plate using the Metafectene PRO reagent (Biontex, München, Germany), as previously described. […]
cAMP accumulation was measured in cells transiently expressing both the BRET-based cAMP biosensor CAMYEL [64] and GnRHR. […] BRET signals were detected at 475 and 535 nm wavelengths upon the addition of 5 µM Coelenterazine H (NanoLight Technologies). […]
(§1) BRET experiments were performed using a CLARIOstar plate reader equipped by a monocromator (BMG Labtech, Ortenberg, Germany), as previously described.
Data were plotted on graphs as means ± standard error of means (SEM). […] Data distributions were analyzed by D’Agostino and Pearson normality tests and inhibition of intracellular Ca^2+ increase by different concentrations of antagonist were compared using two-way analysis of variance (ANOVA), followed by Bonferroni post-test or Kruskal-Wallis and proper post-test. cAMP accumulation was represented as acceptor:donor emission ratio (induced BRET changes) after basal subtraction (untreated cells). […]

Assay [2] addresses T1, GnRH receptor (GnRHR). As to the kind of experiment: BRET measurement of GnRH-induced intracellular Ca2+ increase in HEK293/GnRHR cells. It is filed as cell-based. On the set-up: HA (hemagglutinin); expressed in transfected cells; host or cells: HEK293 (transient co-transfection with BRET biosensor). Conditions: means ± SEM, n = 6. As for the experimental part: Different transfection protocols were followed, depending on the endpoint to be measured. For BRET experiments, 3 × 10^4 cells were transiently transfected using vectors expressing the cAMP-CAMYEL or the aequorin-Ca^2+ BRET biosensor-encoding cDNA [59], as appropriate, together with the GnRHR-HA-encoding vector. Transfections were performed in a 96-well plate using the Metafectene PRO reagent (Biontex, München, Germany), as previously described. 100 ng of the receptor-encoding vector + 100 ng of the BRET biosensor-encoding vector were used for co-transfecting HEK293 cells, while SH-SY5Y cells were co-transfected using 200 ng of the receptor-encoding vector + 100 ng of the BRET biosensor-encoding vector. 200 ng of the aequorin-Ca^2+ BRET biosensor-encoding cDNA were used for transfecting LβT2 cells. Each sample was prepared in duplicate, cultured for 48 h and serum-starved over-night before experiments.
To evaluate Ca^2+ increase, cells were incubated in Hank’s Balanced Salt Solution (HBSS) with Ca^2+ and Mg^2+, 1 mM Hepes and 5 µM Coelenterazine H (NanoLight Technologies, a division of Prolume, Ltd., Pinetop, AZ, USA), for 45 minutes, together with Cetrorelix, Ganirelix, Teverelix or vehicle, as appropriate. […] The EC50 was extrapolated from the curve obtained from each cell line. Cells treated by 5 µM of the sarco/endoplasmic reticulum Ca^2+ ATPase enzyme inhibitor, thapsigargin (Tocris Bioscience), served as positive control. Treatment by the vehicle (HBSS) was the negative control and used as a normalizer.
as §1
Data were plotted on graphs as means ± standard error of means (SEM). The kinetics of intracellular Ca^2+ increase was represented by the BRET biosensor emission after background subtraction (vehicle). […] Data distributions were analyzed by D’Agostino and Pearson normality tests and inhibition of intracellular Ca^2+ increase by different concentrations of antagonist were compared using two-way analysis of variance (ANOVA), followed by Bonferroni post-test or Kruskal-Wallis and proper post-test. cAMP accumulation was represented as acceptor:donor emission ratio (induced BRET changes) after basal subtraction (untreated cells). Dose-response curves were obtained by data interpolation using non-linear regressions and normalized as percentage of the maximal response. EC50s, as well as half-maximal inhibitory concentrations (IC50), were compared by t-test or Mann–Whitney U test, while results obtained by Western blotting and qRT-PCR data were compared by one-way ANOVA followed by Bonferroni post-test. Statistical differences were considered as significant for p < 0.05. These analyses were performed using the GraphPad Prism software (GraphPad Software Inc., San Diego, CA, USA).

The subject of assay [3] is Lhb gene expression. Briefly: Lhb gene expression by qRT-PCR in LβT2 cells. The format is cell-based, mouse. Conditions: 1 µM GnRH + 1 µM antagonist, 24 h, n = 4. How it is done: LβT2 cells were seeded in 24-well plates (2 × 10^5 cells/well) and cultured for 24 h in DMEM supplemented with 10% Charcoal Stripped FBS, 4.5 g/L glucose, 100 IU/mL penicillin, 0.1 mg/mL streptomycin, and 1 mM glutamine (all from Sigma-Aldrich) before treatments. […] Samples were lysed for RNA extraction using TRIzolTM Reagent (Invitrogen) and equal amounts of total RNA were used for cDNA synthesis performed using the iScript reverse transcriptase (BioRad), as previously described. qRT-PCR was carried out in triplicates on the CFX96TM Real-Time PCR Detection System (BioRad) using the following primers pairs: [NT] for mouse Lhb; [NT] for mouse Gapdh. Primer sequences were drawn using the Mus musculus Lhb (NCBI Reference Sequence: NM_008497.2) and Gapdh (NM_008084.3) mRNAs as templates. Gene expression of Lhb was normalized to mouse Gapdh gene expression using the 2^-ΔΔCt method.
Background: Real-time PCR tracks product formation cycle by cycle.

Setting [4] is: 3 × EC50 GnRH + 1 pM antagonist.
Setting [5] is: 3 × EC50 GnRH + 10 pM antagonist.
[6] abbreviates: 3 × EC50 GnRH + 100 pM antagonist.
Setting [7] is: 3 × EC50 GnRH + 1 nM antagonist.
Where [8] appears, read: 3 × EC50 GnRH + 75 nM antagonist.
Where [9] appears, read: 3 × EC50 GnRH + 100 nM antagonist.
The mark [10] stands for this setting: 3 × EC50 GnRH + 1 µM antagonist.

In the case of `CCN=C(NCC)NCCCC[C@H](NC(=O)[C@H](CC(C)C)NC(=O)[C@@H](CCCCNC(=NCC)NCC)NC(=O)[C@H](Cc1ccc(O)cc1)NC(=O)[C@H](CO)NC(=O)[C@@H](Cc1cccnc1)NC(=O)[C@@H](Cc1ccc(Cl)cc1)NC(=O)[C@@H](Cc1ccc2ccccc2c1)NC(C)=O)C(=O)N1CCC[C@H]1C(=O)N[C@H](C)C(N)=O` [Ganirelix] (Ac-[d2Nal][dPhe(4-Cl)][d3Pal]SY[d(hArg(Et2))]L[hArg(Et2)]P[dA]-NH2; N-terminus and C-terminus assumed), the IC50 in assay [1] (read-out: IC50 of inhibition of GnRH-induced cAMP accumulation) was found to be 610 pM. The “AUC of the kinetics of intracellular Ca2+ response” value (“AUC” below) is on record as 76,189 ± 18,564 in assay [2] (setting [4]); 91,896 ± 21,766 in assay [2] (setting [5]); 101,943 ± 27,388 in assay [2] (setting [6]); 66,665 ± 16,035 in assay [2] (setting [7]); 73,164 ± 16,237 in assay [2] (3 × EC50 GnRH + 10 nM antagonist); 43,870 ± 4193 in assay [2] (setting [8]). Moreover, the “AUC” value is listed as 34,734 ± 13,731 in assay [2] (setting [9]) and 3346 ± 2977 in assay [2] (setting [10]). Moreover, in assay [3], the “effect on GnRH-induced Lhb gene expression” value is listed as “inhibited”.
Take `CC(=O)N[C@H](Cc1ccc2ccccc2c1)C(=O)N[C@H](Cc1ccc(Cl)cc1)C(=O)N[C@H](Cc1cccnc1)C(=O)N[C@@H](CO)C(=O)N[C@@H](Cc1ccc(O)cc1)C(=O)N[C@H](CCCNC(N)=O)C(=O)N[C@@H](CC(C)C)C(=O)N[C@@H](CCCNC(=N)N)C(=O)N1CCC[C@H]1C(=O)N[C@H](C)C(N)=O` [Cetrorelix] (Ac-[d2Nal][dPhe(4-Cl)][d3Pal]SY[dCit]LRP[dA]-NH2): in assay [1], the IC50 came out at 840 pM. For the same molecule, the “AUC” value was 78,113 ± 29,979 in assay [2] (setting [4]); 124,981 ± 33,684 in assay [2] (setting [5]); 126,243 ± 34,982 in assay [2] (setting [6]); 71,127 ± 25,268 in assay [2] (setting [7]); 18,632 ± 4423 in assay [2] (setting [8]); 8946 ± 3296 in assay [2] (setting [9]). Further, the “AUC” value in assay [2] (setting [10]) is listed as 3264 ± 3024. Moreover, in assay [3], the “effect on GnRH-induced Lhb gene expression” value is on record as “inhibited”.
